Measurements: patent publication US20240350469A1, “TREATMENT OF LOWER RESPIRATORY TRACT INFECTION WITH TRADIPITANT” (Vanda Pharmaceuticals Inc., priority 2021, published 2024)

Test system: severe or critical COVID-19 infection
Assay: Randomized, double-blind, placebo-controlled study of tradipitant in hospitalized patients with COVID-19 pneumonia (interim analysis, ITT)
Assay type: in vivo
Conditions: for Ordinal Score at Day 7 = 7 (Not hospitalized), no. of patients / Ordinal Score at Day 28 = 1 (Death), % of patients / Ordinal Score at Day 28 = 1 (Death), no. of patients / Ordinal Score at Day 28 = 2 (Hospitalized, on invasive mechanical ventilation or ECMO), % of patients / Ordinal Score at Day 28 = 2 (Hospitalized, on invasive mechanical ventilation or ECMO), no. of patients / Ordinal Score at Day 28 = 3 (Hospitalized, on non-invasive ventilation or high flow oxygen devices), % of patients / Ordinal Score at Day 28 = 3 (Hospitalized, on non-invasive ventilation or high flow oxygen devices), no. of patients / Ordinal Score at Day 28 = 4 (Hospitalized, requiring supplemental oxygen), % of patients / Ordinal Score at Day 28 = 4 (Hospitalized, requiring supplemental oxygen), no. of patients / Ordinal Score at Day 28 = 7 (Not hospitalized), % of patients / Ordinal Score at Day 28 = 7 (Not hospitalized), no. of patients / No. of deaths by day 7 / No. of deaths by day 28 / Ordinal Score at Day 7 = 1 (Death), % of patients / Ordinal Score at Day 7 = 1 (Death), no. of patients / Ordinal Score at Day 7 = 2 (Hospitalized, on invasive mechanical ventilation or ECMO), % of patients / Ordinal Score at Day 7 = 2 (Hospitalized, on invasive mechanical ventilation or ECMO), no. of patients / Ordinal Score at Day 7 = 3 (Hospitalized, on non-invasive ventilation or high flow oxygen devices), % of patients / Ordinal Score at Day 7 = 3 (Hospitalized, on non-invasive ventilation or high flow oxygen devices), no. of patients / Ordinal Score at Day 7 = 4 (Hospitalized, requiring supplemental oxygen), % of patients / Ordinal Score at Day 7 = 4 (Hospitalized, requiring supplemental oxygen), no. of patients / Ordinal Score at Day 7 = 5 (Hospitalized, not requiring supplemental oxygen), % of patients / Ordinal Score at Day 7 = 5 (Hospitalized, not requiring supplemental oxygen), no. of patients / Ordinal Score at Day 7 = 7 (Not hospitalized), % of patients: ITT
[1] = ordinal score at baseline 3, tradipitant N = 13
[2] = ordinal score at baseline 4, tradipitant N = 9

O=C(c1ccccc1Cl)c1cccnc1-c1nnn(Cc2cc(C(F)(F)F)cc(C(F)(F)F)c2)c1-c1ccncc1 [Tradipitant]
Ordinal Score at Day 7 = 7 (Not hospitalized), no. of patients [1]: 1
Ordinal Score at Day 28 = 1 (Death), % of patients [1]: (7.7) %
Ordinal Score at Day 28 = 1 (Death), no. of patients [1]: 1
Ordinal Score at Day 28 = 2 (Hospitalized, on invasive mechanical ventilation or ECMO), % of patients [1]: (61.5) %
Ordinal Score at Day 28 = 2 (Hospitalized, on invasive mechanical ventilation or ECMO), no. of patients [1]: 8
Ordinal Score at Day 28 = 3 (Hospitalized, on non-invasive ventilation or high flow oxygen devices), % of patients [1]: (0.0) %
Ordinal Score at Day 28 = 3 (Hospitalized, on non-invasive ventilation or high flow oxygen devices), no. of patients [1]: 0
Ordinal Score at Day 28 = 4 (Hospitalized, requiring supplemental oxygen), % of patients [1]: (0.0) %
Ordinal Score at Day 28 = 4 (Hospitalized, requiring supplemental oxygen), no. of patients [1]: 0
Ordinal Score at Day 28 = 7 (Not hospitalized), % of patients [1]: (30.8) %
Ordinal Score at Day 28 = 7 (Not hospitalized), no. of patients [1]: 4
No. of deaths by day 7 [2]: 1
No. of deaths by day 28 [2]: 1
Ordinal Score at Day 7 = 1 (Death), % of patients [2]: (11.1) %
Ordinal Score at Day 7 = 1 (Death), no. of patients [2]: 1
Ordinal Score at Day 7 = 2 (Hospitalized, on invasive mechanical ventilation or ECMO), % of patients [2]: (0.0) %
Ordinal Score at Day 7 = 2 (Hospitalized, on invasive mechanical ventilation or ECMO), no. of patients [2]: 0
Ordinal Score at Day 7 = 3 (Hospitalized, on non-invasive ventilation or high flow oxygen devices), % of patients [2]: (11.1) %
Ordinal Score at Day 7 = 3 (Hospitalized, on non-invasive ventilation or high flow oxygen devices), no. of patients [2]: 1
Ordinal Score at Day 7 = 4 (Hospitalized, requiring supplemental oxygen), % of patients [2]: (11.1) %
Ordinal Score at Day 7 = 4 (Hospitalized, requiring supplemental oxygen), no. of patients [2]: 1
Ordinal Score at Day 7 = 5 (Hospitalized, not requiring supplemental oxygen), % of patients [2]: (0.0) %
Ordinal Score at Day 7 = 5 (Hospitalized, not requiring supplemental oxygen), no. of patients [2]: 0
Ordinal Score at Day 7 = 7 (Not hospitalized), % of patients [2]: (66.7) %
Ordinal Score at Day 7 = 7 (Not hospitalized), no. of patients [2]: 6
Ordinal Score at Day 28 = 1 (Death), % of patients [2]: (11.1) %
Ordinal Score at Day 28 = 1 (Death), no. of patients [2]: 1
Ordinal Score at Day 28 = 2 (Hospitalized, on invasive mechanical ventilation or ECMO), % of patients [2]: (0.0) %
Ordinal Score at Day 28 = 2 (Hospitalized, on invasive mechanical ventilation or ECMO), no. of patients [2]: 0
Ordinal Score at Day 28 = 3 (Hospitalized, on non-invasive ventilation or high flow oxygen devices), % of patients [2]: (11.1) %
Ordinal Score at Day 28 = 3 (Hospitalized, on non-invasive ventilation or high flow oxygen devices), no. of patients [2]: 1
Ordinal Score at Day 28 = 4 (Hospitalized, requiring supplemental oxygen), % of patients [2]: (0.0) %
Ordinal Score at Day 28 = 4 (Hospitalized, requiring supplemental oxygen), no. of patients [2]: 0
Ordinal Score at Day 28 = 7 (Not hospitalized), % of patients [2]: (77.8) %
Ordinal Score at Day 28 = 7 (Not hospitalized), no. of patients [2]: 7
No. of deaths by day 7 (overall, tradipitant N = 28): 2
No. of deaths by day 28 (overall, tradipitant N = 28): 4
Ordinal Score at Day 7 = 1 (Death), % of patients (overall, tradipitant N = 28): (7.1) %
Ordinal Score at Day 7 = 1 (Death), no. of patients (overall, tradipitant N = 28): 2
Ordinal Score at Day 7 = 2 (Hospitalized, on invasive mechanical ventilation or ECMO), % of patients (overall, tradipitant N = 28): (32.1) %
Ordinal Score at Day 7 = 2 (Hospitalized, on invasive mechanical ventilation or ECMO), no. of patients (overall, tradipitant N = 28): 9
Ordinal Score at Day 7 = 3 (Hospitalized, on non-invasive ventilation or high flow oxygen devices), % of patients (overall, tradipitant N = 28): (14.3) %
Ordinal Score at Day 7 = 3 (Hospitalized, on non-invasive ventilation or high flow oxygen devices), no. of patients (overall, tradipitant N = 28): 4
Ordinal Score at Day 7 = 4 (Hospitalized, requiring supplemental oxygen), % of patients (overall, tradipitant N = 28): (7.1) %
Ordinal Score at Day 7 = 4 (Hospitalized, requiring supplemental oxygen), no. of patients (overall, tradipitant N = 28): 2
Ordinal Score at Day 7 = 5 (Hospitalized, not requiring supplemental oxygen), % of patients (overall, tradipitant N = 28): (7.1) %
Ordinal Score at Day 7 = 5 (Hospitalized, not requiring supplemental oxygen), no. of patients (overall, tradipitant N = 28): 2
Ordinal Score at Day 7 = 7 (Not hospitalized), % of patients (overall, tradipitant N = 28): (32.1) %
Ordinal Score at Day 7 = 7 (Not hospitalized), no. of patients (overall, tradipitant N = 28): 9
Ordinal Score at Day 28 = 1 (Death), % of patients (overall, tradipitant N = 28): (14.3) %
Ordinal Score at Day 28 = 1 (Death), no. of patients (overall, tradipitant N = 28): 4
Ordinal Score at Day 28 = 2 (Hospitalized, on invasive mechanical ventilation or ECMO), % of patients (overall, tradipitant N = 28): (28.6) %
Ordinal Score at Day 28 = 2 (Hospitalized, on invasive mechanical ventilation or ECMO), no. of patients (overall, tradipitant N = 28): 8
Ordinal Score at Day 28 = 3 (Hospitalized, on non-invasive ventilation or high flow oxygen devices), % of patients (overall, tradipitant N = 28): (3.6) %
Ordinal Score at Day 28 = 3 (Hospitalized, on non-invasive ventilation or high flow oxygen devices), no. of patients (overall, tradipitant N = 28): 1
Ordinal Score at Day 28 = 4 (Hospitalized, requiring supplemental oxygen), % of patients (overall, tradipitant N = 28): (0.0) %
Ordinal Score at Day 28 = 4 (Hospitalized, requiring supplemental oxygen), no. of patients (overall, tradipitant N = 28): 0
Ordinal Score at Day 28 = 7 (Not hospitalized), % of patients (overall, tradipitant N = 28): (53.6) %
Ordinal Score at Day 28 = 7 (Not hospitalized), no. of patients (overall, tradipitant N = 28): 15
Mortality rate (tradipitant arm, interim analysis, placebo arm 16.6%, not statistically significant): 14.2%
Patients showing clinical improvement (at least a 2 point improvement in the 7 point ordinal scale) (tradipitant arm, interim analysis, placebo arm 50%, not statistically significant): 57%
Time to improvement analysis (tradipitant vs placebo, FIG. 1, statistically significant at day 7): recover earlier than those receiving placebo
